{
  "source": "paper PMC4428838",
  "about": "“Optimization of Invasion-Specific Effects of Betulin Derivatives on Prostate Cancer Cells through Lead Development” (PLoS ONE, 2015)",
  "assay_type_in_all_cases": "cell-based",
  "key": {"PC-3 cells": {"tested_on": "PC-3 cells", "assay": "Primary 3D screen in Matrigel ECM, morphometric image analysis (AMIDA) of invasion, growth and cell death", "conditions": "for concentration suppressing the invasive transformation (roundness %): PC-3 spheroids, over 6 days; for anti-invasive effects in 3D culture (in words): 0.03-1 μM", "procedure": "Three standard of care compounds widely used against PrCa were added as controls; namely, the androgen receptor antagonist enzalutamide (MDV3100), the C17α-hydroxylase/C17,20-lyase inhibitor abiraterone (Zytiga), and the classic mitotic inhibitor paclitaxel. Treatments started at day 4, when well-differentiated round acini were established.\nThe live 3D cell cultures were then stained with reactive dyes Calcein AM to detect living, and ethidium homodimer to detect dead cells. Images (Fig 4A) were acquired with confocal microscope and image data were analyzed with the AMIDA software. The principles of morphometric image analysis are briefly outlined in S2 Fig.\nFig 4 Primary 3D screen. PC-3 cells were cultured in 3D Matrigel ECM for 4 days and treated for 6 days with 25 betulin derivatives (from 2D high throughput screens), DMSO/vehicle control, and three reference compounds. A) Representative maximum intensity projections of confocal microscope stack images for selected compound treatments at 300 nM concentration (5× objective, scale 100 μm). B) Three graphs showing the relative impact on three morphometric parameters for 7 betulin derivatives, DMSO control, and one control compound (paclitaxel). […] C) Hierarchical clustering was done using three morphological parameters derived from PC3 organoids: spheroid size (area), complexity and the number of dead cells. D) Wound healing curves of the two betulin derivatives 4 and 20, highlighting the 50% cut-off level (orange dashed line).\nNext, statistical analyses were performed to interpret the complex image data (Fig 4B and 4C). For simplicity, we focused on only three, basic morphologic parameters from the multiparametric AMIDA readout (Fig 4B): 1) Area (indicating growth of organoids), 2) structural Complexity (as a measure of the intensity of invasion), and 3) Relative Area of dead cells within organoids (red signal as a measure of cytoxicity or apoptosis). Area (Size of organoids; Fig 4B, upper panel) was measured as the number of pixels within a segmented structure. […] Shape Complexity (Fig 4B, middle panel) was obtained using the structure size (area) and perimeter (number of border pixels). The more regular the shape of an organoid, the closer it is to a perfect circle, thus minimizing the perimeter relative to object size. […] Deviations from this average (residuals) were interpreted as a measure for the shape complexity of organoids. As a logical lower limit for this measure (represented by a perfect circle), we adjusted the intercept (height level) of the regression line to render all returned residuals as positive numbers.\nAll 3D cultures were done in growth factor-free Matrigel Basement-membrane Matrix (Corning Inc., New York, NY, USA) using 96-well Angiogenesis μ-plates (ibidi GmbH, Munich, Germany) as described before.[38] “Sandwich” assays in short: bottom wells of cooled Angiogenesis plates were filled with 10 μL 4 mg/mL Matrigel, centrifuged for 20 min 200 g and incubated at 37°C temperature for approximately 30–60 min or until the ECM had polymerized. 1,000–1,500 cells were mixed in 2 mg/mL ECM-medium, and 20 μL of cell suspension was added in each well. The plates were centrifuged for 10 min at 100 g, or until the cells had settled on top of the lower ECM. Finally, the outer wells and side reservoirs were filled with water for humidification, and the culture plates placed into the incubator for 3–4 h or overnight. The following day, 60 μL of cell culture medium were added; refreshed every third day by carefully aspirating the medium."}, "PC-3": {"tested_on": "PC-3", "assay": "Wound healing assay in 2D monolayer culture (IncuCyte)", "conditions": "for wound healing 50% cut-off concentration: 2D monolayer, printed in Fig 4D; for reduction of wound closure: at 300 nM, after 64 hours, 2D", "procedure": "Cells were cultured on ImageLock plates (Essen Bioscience, Ann Arbor, MI, USA) until fully confluent and scratched with a WoundMaker instrument (Essen Bioscience). All detached cells were removed by aspiration and medium supplemented with experimental compounds was added. Wound closure was monitored and quantified with the IncuCyte live-cell imager (Essen Bioscience).\nA) Graph showing the transition of PC-3 spheroids from symmetrical acini to irregular invasive structures over 6 days, as measured by general symmetry (roundness %). […] B) Conventional wound healing assay performed in monolayer culture over a period of 64 hours. Wound closure is measured as relative wound density i.e. percentage of original wound area reclaimed by migrating cells. […] (EPS) Click here for additional data file."}, "[1]": {"tested_on": "actin cytoskeleton of PC-3, LNCaP and Ep156T spheroids", "assay": "F-actin cytoskeleton (phalloidin staining) in 3D spheroids", "conditions": "after 48 hours of exposure; seen in Ep156T acini and PC-3 spheroids, not LNCaP", "from_the_text": "[…] […] For phenotypic comparisons, we tested a panel of reference compounds targeting Akt, Rac, ROCK, Src, and other pathways, broadly linked to the actin cytoskeleton.\nFig 8 3D morphologies of prostate spheroids, exposed to selected betulin derivatives and captured with a confocal microscope. Actin cytoskeleton (filamentous or F-actin) is stained green (phalloidin), nuclei with a red dye (confocal microscope images, 40× objective, scale bar shown for each panel on the right lower corner)."}, "PC3 cells": {"tested_on": "PC3 cells", "assay": "Cell morphology and actin cytoskeleton in 2D monolayer culture", "conditions": "PC3, 2D, 72h", "procedure": "As a control, we also tested morphologies treated with the same panel of anti-invasive compounds 4, 5, 6, 16 and 20 as well as betulin (1) on PC3 cells grown in 2D monolayer cultures (S9 Fig).\nSupplementary file pone.0126111.s009.tif: S9 Fig Morphologies of PC-3, LNCaP and Ep156T cells in 2D monolayer culture, exposed 72h to selected betulin derivatives. Actin cytoskeleton (filamentous or F- actin) is stained green (LifeAct), nuclei with a red dye (confocal microscope images, 40× objective, scale bar shown for each panel on the right lower corner). (TIF) Click here for additional data file."}, "[2]": {"tested_on": "PC-3, LNCaP, LAPC-4, Ep156T", "assay": "Primary and secondary 3D screens combined across the cell line panel", "conditions": "cell lines other than PC-3, 3D, 300 nM or lower (except compound 15)", "procedure": "Fig 5 Secondary 3D screens. Experimental betulin derivatives and control compounds were tested across a panel of prostate cancer lines (LNCaP, LAPC-4) and non-transformed, prostate epithelial cells (EP156T) in 3D culture. A) The dendrogram is based on three main morphological parameters and combines all data from primary and secondary 3D screens. Effective compound treatments are indicated in red and yellow, yellow being the most invasion-specific. B) Boxplots showing the impact of selected compounds on spheroid size (Area). Data scaling: as described in Fig 4 C) Effects of all betulin derivatives and control compounds on cell death (number of dead cells).\nIn order to assist functional categorization of our betulin derivatives, we combined all data into a single dendrogram, shown in Fig 5A. In addition, multiparametric representation of all experimental data as a single heatmap is highly informative (S5 Fig) and a potent way to illustrate the effects of compounds on growth, structural complexity and cell death across multiple cell lines. […] However, at lower concentrations, these compounds may act as potent and specific inhibitors of cell invasion and motility.\nSupplementary file pone.0126111.s005.eps: S5 Fig Primary and secondary screens. […] The main read-outs (Area = Size, Complexity = Invasiveness, Red = Cell death) are shown in their own columns. Data scaling: DMSO control has been given a value 0 whereas paclitaxel control is valued -100 or 100 depending on the read-out. Color key is located in the upper right corner. (EPS) Click here for additional data file.\nSupplementary file pone.0126111.s006.tif: S6 Fig Confocal images from primary and secondary betulin screens. Viable cells have been stained with calcein AM (green) and dead cells with ethidium homodimer-2 (red) (5× objective, maximum intensity projections, scale bar = 100 μm). (TIF) Click here for additional data file."}, "[3]": {"conditions": "PC-3 in 3D Matrigel, 6 days treatment"}},
  "data": [
    {"smiles": "C=C(C)[C@@H]1CC[C@]2(C(=O)O)CC[C@]3(C)C(CCC4[C@@]5(C)Cc6cnoc6C(C)(C)C5CC[C@]43C)C12", "note": "(some centres unmarked) [Compound 5]", "values": [
      {"measurement": "concentration at which anti-invasive effects are seen in 3D", "setting": "PC-3 cells; [3]", "result": 300, "unit": "nM"},
      {"measurement": "concentration suppressing the invasive transformation (roundness %)", "setting": "PC-3 cells", "result": "over 300 nM"},
      {"measurement": "concentration required in 2D culture for effects comparable to 3D", "setting": "PC-3; 2D wound healing", "result": "higher than 1 μM"},
      {"measurement": "organization of actin cytoskeleton in 3D spheroids", "setting": "[1]", "result": "effectively disrupted the organization of actin cytoskeleton"},
      {"measurement": "morphology and actin cytoskeleton of cells in 2D monolayer", "setting": "PC3 cells", "result": "No morphologies and visible effects on the actin cytoskeleton"}
    ]},
    {"smiles": "C=C(C)[C@@H]1CC[C@]2(C(=O)O)CC[C@]3(C)C(CCC4[C@@]5(C)Cc6cccnc6C(C)(C)C5CC[C@]43C)C12", "note": "(some centres unmarked) [Compound 19]", "values": [
      {"measurement": "anti-invasive effects in 3D culture (in words)", "setting": "PC-3 cells; [3]", "result": "potently anti-invasive at significantly lower concentrations"},
      {"measurement": "effects on the other cell lines at anti-invasive concentrations", "setting": "[2]", "result": "no noticeable effects on the other cell lines"}
    ]},
    {"smiles": "CC(C)[C@@H]1CC[C@]2(C(=O)O)CC[C@]3(C)C(CCC4[C@@]5(C)Cc6cnoc6C(C)(C)C5CC[C@]43C)C12", "note": "(some centres unmarked) [Compound 4]", "values": [
      {"measurement": "wound healing 50% cut-off concentration", "setting": "PC-3", "result": "ca. 0.3 μM"},
      {"measurement": "reduction of wound closure", "setting": "PC-3", "result": 50, "unit": "%"},
      {"measurement": "effects on the other cell lines at anti-invasive concentrations", "setting": "[2]", "result": "no noticeable effects on the other cell lines"},
      {"measurement": "morphology and actin cytoskeleton of cells in 2D monolayer", "setting": "PC3 cells", "result": "No morphologies and visible effects on the actin cytoskeleton"}
    ]},
    {"smiles": "C=C(C)[C@@H]1CC[C@]2(C(=O)O)CC[C@]3(C)C(CCC4[C@@]5(C)Cc6c[nH]nc6C(C)(C)C5CC[C@]43C)C12", "note": "(some centres unmarked) [Compound 6]", "values": [
      {"measurement": "anti-invasive effects in 3D culture (in words)", "setting": "PC-3 cells; [3]", "result": "even more potent and proved to be specifically anti-invasive"},
      {"measurement": "effects on the other cell lines at anti-invasive concentrations", "setting": "[2]", "result": "no noticeable effects on the other cell lines"},
      {"measurement": "organization of actin cytoskeleton in 3D spheroids", "setting": "[1]", "result": "effectively disrupted the organization of actin cytoskeleton"},
      {"measurement": "morphology and actin cytoskeleton of cells in 2D monolayer", "setting": "PC3 cells", "result": "No morphologies and visible effects on the actin cytoskeleton"}
    ]},
    {"smiles": "CC(=O)O[C@H]1C(=O)[C@@]2(C)[C@H]([C@H](OC(=O)c3ccccc3)[C@]3(O)C[C@H](OC(=O)[C@H](O)[C@@H](NC(=O)c4ccccc4)c4ccccc4)C(C)=C1C3(C)C)[C@]1(OC(C)=O)CO[C@@H]1C[C@@H]2O", "note": "[Paclitaxel, paclitaxel, reference compound]", "values": [
      {"measurement": "effect on morphometric measures (area, complexity, dead cells)", "setting": "PC-3 cells; PC-3 in 3D Matrigel, paclitaxel at 30 and 100 nM", "result": "strong effect on all morphometric measures"}
    ]},
    {"smiles": "C=C(C)[C@@H]1CC[C@]2(C(=O)O)CC[C@]3(C)C(CCC4[C@@]5(C)Cc6ncccc6C(C)(C)C5CC[C@]43C)C12", "note": "(some centres unmarked) [Compound 20]", "values": [
      {"measurement": "anti-invasive effects in 3D culture (in words)", "setting": "PC-3 cells; [3]", "result": "potently anti-invasive at significantly lower concentrations"},
      {"measurement": "concentration suppressing the invasive transformation (roundness %)", "setting": "PC-3 cells", "result": "over 300 nM"},
      {"measurement": "wound healing 50% cut-off concentration", "setting": "PC-3", "result": "ca. 0.3 μM"},
      {"measurement": "reduction of wound closure", "setting": "PC-3", "result": 50, "unit": "%"},
      {"measurement": "effects on the other cell lines at anti-invasive concentrations", "setting": "[2]", "result": "no noticeable effects on the other cell lines"},
      {"measurement": "organization of actin cytoskeleton in 3D spheroids", "setting": "[1]", "result": "effectively disrupted the organization of actin cytoskeleton"},
      {"measurement": "morphology and actin cytoskeleton of cells in 2D monolayer", "setting": "PC3 cells", "result": "No morphologies and visible effects on the actin cytoskeleton"}
    ]}
  ]
}
